Assay results from the NIST ThermoML archive (doi:10.1016/j.tca.2012.01.007).

Assay: wn = mass fraction of the nth substance listed
Details: 101 kPa, Liquid, Vibrating tube method

OCCNCCO [diethanolamine] + CCO
Details | mass density [kg/m3]
278.14 K, w1 = 0.1 | 827.791
278.14 K, w1 = 1 | 1107.05
278.15 K, w1 = 0.1999 | 854.007
278.15 K, w1 = 0.3 | 881.862
278.15 K, w1 = 0.3999 | 910.002
278.15 K, w1 = 0.5001 | 939.811
278.15 K, w1 = 0.5998 | 970.814
278.15 K, w1 = 0.7002 | 1004.37
278.15 K, w1 = 0.8001 | 1037.46
278.15 K, w1 = 0.8417 | 1051.46
278.15 K, w1 = 0.8997 | 1071.67
283.14 K, w1 = 0.1 | 823.639
283.14 K, w1 = 0.1999 | 849.953
283.14 K, w1 = 0.3 | 877.917
283.14 K, w1 = 1 | 1103.88
283.15 K, w1 = 0.3999 | 906.254
283.15 K, w1 = 0.5001 | 936.053
283.15 K, w1 = 0.5998 | 967.135
283.15 K, w1 = 0.7002 | 1000.78
283.15 K, w1 = 0.8001 | 1034
283.15 K, w1 = 0.8417 | 1048.09
283.15 K, w1 = 0.8997 | 1068.38
293.14 K, w1 = 0.1 | 815.297
293.14 K, w1 = 0.1999 | 841.801
293.14 K, w1 = 0.3 | 869.969
293.14 K, w1 = 0.5998 | 959.776
293.14 K, w1 = 0.8997 | 1061.73
293.15 K, w1 = 0.3999 | 898.495
293.15 K, w1 = 0.5001 | 928.504
293.15 K, w1 = 0.7002 | 993.608
293.15 K, w1 = 0.8001 | 1027.03
293.15 K, w1 = 0.8417 | 1041.24
293.15 K, w1 = 1 | 1097.51
303.14 K, w1 = 0.1 | 806.876
303.14 K, w1 = 0.3 | 861.949
303.14 K, w1 = 1 | 1091.06
303.15 K, w1 = 0.1999 | 833.564
303.15 K, w1 = 0.3999 | 890.674
303.15 K, w1 = 0.5001 | 920.9
303.15 K, w1 = 0.5998 | 952.376
303.15 K, w1 = 0.7002 | 986.404
303.15 K, w1 = 0.8001 | 1020.01
303.15 K, w1 = 0.8417 | 1034.3
303.15 K, w1 = 0.8997 | 1054.97
313.14 K, w1 = 0.1 | 798.332
313.14 K, w1 = 0.3 | 853.824
313.14 K, w1 = 1 | 1084.49
313.15 K, w1 = 0.1999 | 825.235
313.15 K, w1 = 0.3999 | 882.762
313.15 K, w1 = 0.5001 | 913.212
313.15 K, w1 = 0.5998 | 944.908
313.15 K, w1 = 0.7002 | 979.15
313.15 K, w1 = 0.8001 | 1012.95
313.15 K, w1 = 0.8417 | 1027.32
313.15 K, w1 = 0.8997 | 1048.11
323.14 K, w1 = 0.1 | 789.624
323.14 K, w1 = 0.1999 | 816.75
323.14 K, w1 = 0.3 | 845.563
323.14 K, w1 = 0.7002 | 971.82
323.14 K, w1 = 1 | 1077.78
323.15 K, w1 = 0.3999 | 874.726
323.15 K, w1 = 0.5998 | 937.339
323.15 K, w1 = 0.8001 | 1005.75
323.15 K, w1 = 0.8417 | 1020.28
323.15 K, w1 = 0.8997 | 1041.21
323.16 K, w1 = 0.5001 | 905.4
333.14 K, w1 = 0.1 | 780.704
333.14 K, w1 = 0.1999 | 808.075
333.14 K, w1 = 0.3 | 837.129
333.14 K, w1 = 1 | 1071
333.15 K, w1 = 0.3999 | 866.54
333.15 K, w1 = 0.5001 | 897.474
333.15 K, w1 = 0.5998 | 929.643
333.15 K, w1 = 0.7002 | 964.37
333.15 K, w1 = 0.8001 | 998.264
333.15 K, w1 = 0.8417 | 1013.15
333.15 K, w1 = 0.8997 | 1034.23
343.14 K, w1 = 0.1 | 771.521
343.14 K, w1 = 0.1999 | 799.163
343.14 K, w1 = 0.3 | 828.477
343.14 K, w1 = 0.5001 | 889.372
343.14 K, w1 = 0.8997 | 1027.15
343.14 K, w1 = 1 | 1064.14
343.15 K, w1 = 0.3999 | 858.164
343.15 K, w1 = 0.5998 | 921.798
343.15 K, w1 = 0.7002 | 956.784
343.15 K, w1 = 0.8001 | 990.826
343.15 K, w1 = 0.8417 | 1005.84
348.14 K, w1 = 0.1 | 766.805
348.14 K, w1 = 0.1999 | 794.6
348.14 K, w1 = 0.3 | 824.049
348.14 K, w1 = 0.5998 | 917.813
348.14 K, w1 = 1 | 1060.68
348.15 K, w1 = 0.3999 | 853.893
348.15 K, w1 = 0.5001 | 885.244
348.15 K, w1 = 0.7002 | 952.934
348.15 K, w1 = 0.8001 | 987.083
348.15 K, w1 = 0.8417 | 1001.85
348.15 K, w1 = 0.8997 | 1023.57

OCCNCCO [diethanolamine] + O
Details | mass density [kg/m3]
283.14 K, w1 = 1 | 1103.88
283.15 K, w1 = 0.1007 | 1011.98
283.15 K, w1 = 0.2002 | 1024.98
283.15 K, w1 = 0.2997 | 1038.45
283.15 K, w1 = 0.3999 | 1052.36
283.15 K, w1 = 0.5003 | 1065.24
283.15 K, w1 = 0.6024 | 1077.85
283.15 K, w1 = 0.6999 | 1088.2
283.15 K, w1 = 0.8004 | 1096.55
283.15 K, w1 = 0.8534 | 1099.73
283.15 K, w1 = 0.8995 | 1101.58
283.16 K, w1 = 0.9316 | 1102.57
283.16 K, w1 = 0.9591 | 1103.24
293.14 K, w1 = 0.8995 | 1095.4
293.15 K, w1 = 0.1007 | 1010.01
293.15 K, w1 = 0.2002 | 1022.35
293.15 K, w1 = 0.2997 | 1035.07
293.15 K, w1 = 0.3999 | 1048.19
293.15 K, w1 = 0.5003 | 1060.32
293.15 K, w1 = 0.6024 | 1072.33
293.15 K, w1 = 0.6999 | 1082.23
293.15 K, w1 = 0.8004 | 1090.42
293.15 K, w1 = 0.8534 | 1093.59
293.15 K, w1 = 0.9316 | 1096.37
293.15 K, w1 = 0.9591 | 1096.98
293.15 K, w1 = 1 | 1097.51
303.14 K, w1 = 0.6024 | 1066.59
303.14 K, w1 = 0.6999 | 1076.15
303.14 K, w1 = 0.8995 | 1089.06
303.14 K, w1 = 1 | 1091.06
303.15 K, w1 = 0.2002 | 1018.95
303.15 K, w1 = 0.2997 | 1031.08
303.15 K, w1 = 0.3999 | 1043.56
303.15 K, w1 = 0.8004 | 1084.12
303.15 K, w1 = 0.8534 | 1087.26
303.15 K, w1 = 0.9316 | 1090.01
303.15 K, w1 = 0.9591 | 1090.59
303.16 K, w1 = 0.1007 | 1007.1
303.16 K, w1 = 0.5003 | 1055.09
313.14 K, w1 = 0.6024 | 1060.6
313.14 K, w1 = 0.8004 | 1077.72
313.14 K, w1 = 1 | 1084.49
313.15 K, w1 = 0.1007 | 1003.4
313.15 K, w1 = 0.2002 | 1014.87
313.15 K, w1 = 0.3999 | 1038.5
313.15 K, w1 = 0.6999 | 1069.91
313.15 K, w1 = 0.8534 | 1080.78
313.15 K, w1 = 0.8995 | 1082.55
313.15 K, w1 = 0.9316 | 1083.49
313.15 K, w1 = 0.9591 | 1084.06
313.16 K, w1 = 0.2997 | 1026.54
313.16 K, w1 = 0.5003 | 1049.55
323.14 K, w1 = 0.5003 | 1043.69
323.14 K, w1 = 0.6024 | 1054.36
323.14 K, w1 = 1 | 1077.78
323.15 K, w1 = 0.1007 | 999.014
323.15 K, w1 = 0.2002 | 1010.18
323.15 K, w1 = 0.6999 | 1063.49
323.15 K, w1 = 0.8004 | 1071.18
323.15 K, w1 = 0.8534 | 1074.21
323.15 K, w1 = 0.8995 | 1075.95
323.15 K, w1 = 0.9316 | 1076.86
323.15 K, w1 = 0.9591 | 1077.4
323.16 K, w1 = 0.2997 | 1021.47
323.16 K, w1 = 0.3999 | 1033.03
333.14 K, w1 = 0.8995 | 1069.24
333.14 K, w1 = 1 | 1071
333.15 K, w1 = 0.1007 | 994.007
333.15 K, w1 = 0.2002 | 1004.93
333.15 K, w1 = 0.2997 | 1015.93
333.15 K, w1 = 0.3999 | 1027.17
333.15 K, w1 = 0.5003 | 1037.44
333.15 K, w1 = 0.6024 | 1047.86
333.15 K, w1 = 0.6999 | 1056.8
333.15 K, w1 = 0.8534 | 1067.5
333.15 K, w1 = 0.9316 | 1070.14
333.15 K, w1 = 0.9591 | 1070.66
333.16 K, w1 = 0.8004 | 1064.48
343.14 K, w1 = 0.2997 | 1009.93
343.14 K, w1 = 0.6024 | 1041.1
343.14 K, w1 = 0.6999 | 1049.92
343.14 K, w1 = 0.8995 | 1062.39
343.14 K, w1 = 1 | 1064.14
343.15 K, w1 = 0.1007 | 988.445
343.15 K, w1 = 0.2002 | 999.169
343.15 K, w1 = 0.3999 | 1020.9
343.15 K, w1 = 0.5003 | 1030.89
343.15 K, w1 = 0.8534 | 1060.63
343.15 K, w1 = 0.9316 | 1063.3
343.15 K, w1 = 0.9591 | 1063.82
343.16 K, w1 = 0.8004 | 1057.6
353.14 K, w1 = 0.2997 | 1003.5
353.14 K, w1 = 0.5003 | 1024.01
353.14 K, w1 = 0.6999 | 1042.78
353.14 K, w1 = 0.8995 | 1055.38
353.14 K, w1 = 0.9316 | 1056.33
353.14 K, w1 = 0.9591 | 1056.87
353.15 K, w1 = 0.1007 | 982.774
353.15 K, w1 = 0.2002 | 992.938
353.15 K, w1 = 0.3999 | 1014.25
353.15 K, w1 = 0.6024 | 1034.05
353.15 K, w1 = 0.8004 | 1050.51
353.15 K, w1 = 0.8534 | 1053.58
353.15 K, w1 = 1 | 1056.83
